# Experiments:
# EcPDF [1] = tested on: EcPDF
# Procedure: Head of the field: EcPDF %I 10uM
# (§4) Specificity profiling of the derivatives of benzofuran-4,5-diones.
# Where the first naming reader finds the target: head: EcPDF %I 10uM
# EcPDF [2] = tested on: EcPDF; remark: listed apart in the source
# Procedure: Head of the field: EcPDF %I 100uM
# as §4
# Where the first naming reader finds the target: head: EcPDF %I 100uM
# MMP-1 = MMP-1 %I 100uM
# Procedure: (§1) Table printed on a drawing sheet, Figure 5
# Head of the field: MMP-1 %I 100uM
# (§2) Footnotes: -26 124 % inhibition
# (§3) The patent's description of the figure: FIG. 5.
# Where the first naming reader finds the target: head: MMP-1 %I 100uM
# HsPDF [3] = molecular target: T1, HsPDF (Homo sapiens, UniProt Q9HBH1); test: HsPDF %I 10uM
# T1 construct: A 63 amino acid N-terminally truncated human peptide deformylase (HsPDF); 6His (C); made in house; host or cells: E. coli BL21 (DE3), co-transformed with the GroES/EL chaperone plasmid
# Procedure: as §1
# Head of the field: HsPDF %I 10uM
# as §2, §3
# Where the first naming reader finds the target: head: HsPDF %I 10uM
# APN = APN %I 100uM
# Procedure: as §1
# Head of the field: APN %I 100uM
# as §2, §3
# Where the first naming reader finds the target: head: APN %I 100uM
# HsPDF [4] = molecular target: T1, HsPDF; test: HsPDF %I 100uM
# Procedure: as §1
# Head of the field: HsPDF %I 100uM
# as §2, §3
# Where the first naming reader finds the target: head: HsPDF %I 100uM
SMILES,EcPDF %I 10uM (EcPDF [1]) [%I],EcPDF %I 100uM (EcPDF [2]) [%I],MMP-1 %I 100uM (MMP-1) [%I],HsPDF %I 10uM (HsPDF [3]) [%I],APN %I 100uM (APN) [%I],HsPDF %I 100uM (HsPDF [4]) [%I]
"COc1ccc(C(=O)c2coc3c2C(=O)C(=O)C=C3Cl)cc1 [SKC-BF-03, 7-Chloro-3-(4-methoxybenzoyl)-benzofuran-4,5-dione]",-6,–,–,–,–,–
"COc1ccc(C(=O)c2coc3c2C(=O)C(=O)C(Cl)=C3Cl)cc1 [SKC-BF-05, 6,7-Dichloro-3-(4-methoxy-benzoyl)-benzofuran-4,5-dione]",0,1,-19,–,–,–
"COc1ccc(C(=O)c2coc3c2C(=O)C(=O)C(Br)=C3)cc1 [SKC-BF-06, 6-Bromo-3-(4-methoxybenzoyl)-benzofuran-4,5-dione]",–,–,–,29,–,–
"COc1cc(C(=O)c2coc3c2C(=O)C(=O)C(Cl)=C3Cl)cc(OC)c1OC [SKC-BF-11, 6,7-Dichloro-3-(3,4,5-trimethoxy-benzoyl)-benzofuran-4,5-dione]",–,27,32,–,–,–
"O=C(c1ccccc1)c1coc2ccc(O)cc12 [SKC-BF-Int3, (5-Hydroxy-benzofuran-3-yl)-phenyl-methanone]",7,7,–,–,–,–
"O=C(c1ccccc1)c1coc2c(Cl)c(Cl)c(O)cc12 [SKC-BF-Int4, (6,7-Dichloro-5-hydroxy-benzofuran-3-yl)-phenyl-methanone]",6,1,-20,8,6,24
"COc1ccc(C(=O)c2coc3cc(Br)c(O)cc23)cc1 [SKC-BF-Int7A, (6-Bromo-5-hydroxy-benzofuran-3-yl)-(4-methoxyphenyl)-methanone]",-8,-14,–,-17,-17,-5
"COc1ccc(C(=O)c2coc3c(Br)cc(O)cc23)cc1 [SKC-BF-Int7B, (7-Bromo-5-hydroxy-benzofuran-3-yl)-(4-methoxyphenyl)-methanone]",18,9,-19,–,-5,–
"COc1ccc(C(=O)c2coc3ccc(O)c(Br)c23)cc1 [SKC-BF-Int7C, (4-Bromo-5-hydroxy-benzofuran-3-yl)-(4-methoxyphenyl)-methanone]",-4,-4,–,3,-14,-20
"COc1ccc(C(=O)c2coc3c(Br)cc(O)c(Br)c23)cc1 [SKC-BF-Int7D, (4,7-Dibromo-5-hydroxy-benzofuran-3-yl)-(4-methoxy-phenyl)-methanone]",–,-8,–,0,–,-9
"COc1ccc(C(=O)c2coc3ccc(O)cc23)cc1 [SKC-BF-Int9, (5-Hydroxy-benzofuran-3-yl)-(4-methoxyphenyl)-methanone]",5,–,–,–,4,–
"COc1ccc(C(=O)c2coc3cc(Cl)c(O)c(Cl)c23)cc1 [SKC-BF-Int10D, (4,6-Dichloro-5-hydroxy-benzofuran-3-yl)-(4-methoxyphenyl)-methanone]",4,3,–,21,–,26
"COc1ccc(C(=O)c2coc3c(Cl)cc(O)c(Cl)c23)cc1 [SKC-BF-Int10E, (4,7-Dichloro-5-hydroxy-benzofuran-3-yl)-(4-methoxy-phenyl)-methanone]",–,-4,-4,–,-4,9
